Columns and labels:
[1] = system: C. tinctoria ALS allele with mutations at both Pro197 and Trp574; assay: Herbicide resistance imparted by the double-mutant ALS allele; parameters: species or system Coreopsis tinctoria; details: for Pre-emergence and/or post-emergence resistance to herbicide: novel allele with two point mutations; for Resistance of the clone with mutations at both Pro197 and Trp574: resistant clone with both mutations
[2] = target: T1, AHAS enzyme from CL161 rice (Oryza sativa subsp. japonica, UniProt Q6K2E8, S627N); assay: ALS enzyme assay, CL161 rice versus CCDR rice; format: biochemical
T1 construct: from tissue; host or cells: leaves of CL161 rice plants; crude ammonium sulfate fraction
T1 sequence (Q6K2E8 44-644 S627N): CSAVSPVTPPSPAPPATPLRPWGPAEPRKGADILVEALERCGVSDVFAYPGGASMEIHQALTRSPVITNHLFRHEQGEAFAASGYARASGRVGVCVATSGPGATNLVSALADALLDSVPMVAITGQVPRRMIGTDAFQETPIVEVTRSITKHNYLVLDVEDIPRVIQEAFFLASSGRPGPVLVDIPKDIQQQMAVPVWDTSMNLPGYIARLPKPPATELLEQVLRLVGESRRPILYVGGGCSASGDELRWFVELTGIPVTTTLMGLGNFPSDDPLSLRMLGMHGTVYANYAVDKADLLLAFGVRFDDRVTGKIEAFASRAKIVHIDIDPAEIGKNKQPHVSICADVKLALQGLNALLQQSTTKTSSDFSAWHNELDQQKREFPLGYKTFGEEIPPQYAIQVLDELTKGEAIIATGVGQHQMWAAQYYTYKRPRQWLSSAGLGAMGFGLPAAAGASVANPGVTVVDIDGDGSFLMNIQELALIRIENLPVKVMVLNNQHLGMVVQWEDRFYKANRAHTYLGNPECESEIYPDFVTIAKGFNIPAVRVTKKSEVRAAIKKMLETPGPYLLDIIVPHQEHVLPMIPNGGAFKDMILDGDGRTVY
Source text: (§1) ALS enzyme Assay: An ALS enzyme assay was used to determine if resistance in the mutants was due to the ALS enzyme itself in the mutant plants. A modification was used of the colorimetric method of Singh B. K., Stidham M. A., and Shaner D. L. 1988. Assay of acetohydroxyacid synthase. Analytical Biochemistry 171:173-179. Rice plants were used as controls. Sulfometuron methyl (Oust), chlorsulfuron (Glean), and imazapyr (Arsenal) were used as ALS inhibitors. Briefly, 10 grams of young leaves pooled from either mutant plants or from susceptible plants were ground to a powder in liquid nitrogen, and mixed with 50 ml of extraction buffer containing 100 mM K2HPO4 (pH 7.5), 10 mM sodium pyruvate, 5 mM EDTA, 1 mM valine, 1 mM leucine, 10 mM cysteine, 0.1 mM flavin adenine dinucleotide, 5 mM MgCl2, 10% (v/v) glycerol, and 1% (w/v) polyvinylpyrrolidone. The homogenate was filtered through eight layers of cheesecloth and centrifuged at 25,000 g at 4° C. for 20 min. The supernatant was brought to 50% saturation with (NH4)2SO4 by adding an equal volume of 100% saturated extraction buffer, and was then allowed to stand for 20-30 min on ice. The resulting solution was centrifuged at 25,000 g at 4° C. for another 20 min. The pellet was dissolved in 10 ml resuspension buffer containing 100 mM K2HPO4 (pH7.5), 1 mM EDTA, 100 mM NaCl, and 10% (v/v) glycerol. Bradford Reagent (SIGMA, Saint Louis, Mo., USA) was used to determine the concentration of total protein in solution; and resuspension buffer was used to adjust the concentrations of total protein from wild- and mutant-type of C. tinctoria to the same level.
(§2) ALS activity was measured by mixing 1.5 ml of assay buffer, containing 100 mM K2HPO4 (pH 7.0), 10 mM MgCl2, 100 mM sodium pyruvate, 1 mM thiamine pyrophosphate, 0.1 mM flavin adenine dinucleotide, and 0.5 mL of the ALS extract, with varying amounts of herbicide (0.0.1, 1, 10, 100, 1000 μM). The mixture was then incubated at 37° C. for 1 h. […] The mixtures were then centrifuged at 12,000 g for 10 min, and absorbance was measured at 530 nm with a Spectrophotometer 690.

[3] = system: susceptible C. tinctoria plants; assay: Greenhouse herbicide spray test, susceptible plants; format: in vivo; details: SM 8 oz. a.i./A, IM 2 oz. a.i./A
Description: (§3) Response of resistant and susceptible C. tinctoria to imidazolinone and sulfonylurea herbicides treatments: Both wild-type and mutant strains of C. tinctoria were planted in the greenhouse with ˜100 seeds per pot. Individual plants were transplanted to separate pots after seven weeks. The greenhouse regime comprised natural light with temperatures of 25 to 30° C. during the day and 15 to 20° C. at night. The experimental setup was a completely randomized design with five treatments and six plants (replications) per treatment for both wild-type and mutant strains. The five treatments were Arsenal (imazapyr), Oust (sulfometuron methyl), Arsenal+Oust sequential, Oust+Arsenal sequential, and control (no herbicide). […] to individual mutant or susceptible, […], with 12 plants per each herbicide treatment for both wild-type and mutants. Ten days later, the same rate of Oust was sprayed on six plants that had previously been treated with Arsenal, and the same rate of Arsenal was sprayed on six plants that had previously been treated with Oust, for both wild-type and mutants. […]
The range of herbicide injury ratings for the sprayed susceptible plants was 3.3 to 4.8, with essentially no injury for the unsprayed controls.

[4] = system: resistant C. tinctoria plants; assay: Greenhouse herbicide spray test, resistant plants; format: in vivo
Description: as §3
Plant height in resistant plants was not affected when sprayed with […] or imazapyr, as compared to the unsprayed resistant controls. […] It appeared that the imazapyr+sulfosulfuron methyl treatment stimulated growth in the resistant plants, an observation that will be confirmed in follow-up experiments. Various strains or genotypes of C. tinctoria were used in this study, so a direct evaluation of herbicide on plant height should be viewed with caution. […] Herbicide injury ratings for the resistant plants ranged from 0.5 to 1.2 (Table 2).

[5] = system: ALS enzyme from the resistant C. tinctoria mutants; assay: ALS enzyme assay, C. tinctoria mutant versus susceptible; format: biochemical
Source text: as §1, §2

[6] = system: Idlewild-grown control seed (herbicide-sensitive Coreopsis); assay: Field planting sprayed with Oust, Idlewild-grown control seed; format: in vivo, Coreopsis tinctoria; details: single application of Oust at 0.07 pounds ai/A
Source text: (§4) Seed were harvested from mature Coreopsis with a combine from plantings both inside and outside the herbicide treated areas at the Idlewild Research Station in Clinton, La. Seed were also harvested with a combine from the roadside area near Chase, La. Putative herbicide-resistant seed from the Chase location, and putative herbicide-sensitive seed from the Idlewild Research Station were separately cleaned and stored in a climate-controlled seed storage facility.
(§5) Seed samples from both seed sources were planted in March at the Idlewild Research Station using a small grain drill, at a 2 pound per acre seeding rate. Area one contained both control seed grown the previous season at the Idlewild Research Station, and seed obtained from the Chase, La. site. A second area was planted in March exclusively with seed from Chase, La. A third area was planted in April with seed from Chase, La.
(§6) A single application of Oust at 0.07 pounds ai/A was applied in mid-May to half of the first and third plantings and to all of the second planting.

susceptible Coreopsis = assay: Field trial of ALS-inhibiting herbicides on F1 plants, commercial control seed; format: in vivo, Coreopsis tinctoria; details: Oust applied at 0.07 pounds ai/A, ratings taken at 23 and 49 days after application
Description: To confirm herbicide resistance, and to characterize herbicide resistance profiles, seeds from the roadside-harvested, putatively-resistant Coreopsis were harvested (F0) and planted in a field in a separate location from the original roadside stand. The resulting F0 plants were not subjected to herbicide treatment. F1 seeds were harvested from the F0 plants, and the F1 seeds were planted in a field in several blocks and replicates. The resulting F1 plants were treated with various AHAS-inhibiting herbicides.
Commercial Coreopsis tinctoria seed were obtained as controls from two commercial nurseries. The commercially-obtained seed and the experimental seed were planted with a small grain drill at a seeding rate of 2 pounds per acre. Three months later, herbicides were applied to the F1 plants at different rates in a randomized complete block design with three replications. The ALS-inhibiting herbicides used in this trial were sulfometuron methyl (trade name Oust™); imazapic (trade name Plateau™); sulfosulfuron, 1-(2-ethylsulfonylimidazo[1,2a]pyridin-3-ylsulfonyl)-3-(4,6-dimethoxypyrimidin-2-yl) urea (trade name Outrider™); and DPX 6447.
Percent injury ratings were taken at 23 and 49 days after herbicide application. All herbicide treatments injured the susceptible Coreopsis. […]

[7] = system: susceptible transplants from Idlewild; assay: Transplanting trial, susceptible transplants; format: in vivo, Coreopsis tinctoria; details: applied 2 weeks after transplant, ratings 2 and 4 weeks after application
Description: A transplanting trial was also conducted in May at the Idlewild Research Station. Five-inch diameter divots of plants were collected at both the Chase and Idlewild sites. Divots were transplanted to a location at Idlewild which had had no previous Coreopsis crop. Divots were transplanted in a paired arrangement on 36 inch centers. Oust, Plateau and Outrider were applied at various rates 2 weeks after transplant. The trial used a randomized complete block design with 3 replications. Visual injury and height ratings were taken 2 and 4 weeks after application. Injury to the susceptible transplants from Idlewild ranged from a high of 100% at all rates of Oust to a low of 60% with the 0.06 pound ai/A rate of Outrider. No injury was observed, nor any height differences noted in any application made to the resistant transplants from the Chase site.

[8] = system: seed from Chase (herbicide-resistant Coreopsis); assay: Field planting sprayed with Oust, seed from Chase; format: in vivo, Coreopsis tinctoria
Source text: as §4, §5, §6

[9] = sequential sprays March 3 and March 13, 25 days after treatment
[10] = SM 8 oz. a.i./A, IM 2 oz. a.i./A, sequential sprays March 3 and March 13

Which “Pre-emergence and/or post-emergence resistance to herbicide” value [1] does the source give for `Cc1cnc(C2=NC(C)(C(C)C)C(=O)N2)c(C(=O)O)c1` (racemic) [imazapic, (±)-2-[4,5-dihydro-4-methyl-4-(1-methyl-ethyl)-5-oxo-1H-imidazol-2-yl]-5-methyl-3-pyridinecarboxylic acid] here?
The value was “Resistance has been demonstrated”.

How did the “Pre-emergence and/or post-emergence resistance to herbicide” value [1] turn out when `CC(C)C1(C)N=C(c2ncccc2C(=O)O)NC1=O` (centres unmarked) [Arsenal, 2-[4,5-dihydro-4-methyl-4-(1-methylethyl)-5-oxo-1H-imidazol-2-yl]-3-pyridinecarboxylic acid] was run?
The value was “Resistance has been demonstrated”.

And the “Resistance of the clone with mutations at both Pro197 and Trp574” value (from here on “Resistance of the clone with mutations”) [1]?
The value was “strong resistance”.

What about the “Tolerance of CL161 rice enzyme compared to control” value ([2]; Arsenal at 10 μM, FIG. 1b) of the same compound?
Its value is < 2 fold.

And the “% height reduction compared to no spray control” value [3, 9]?
Its value is 80%.

And the “Plant height (cm)” value [3, 9]?
Its value is 11.0 cm.

What about the Injury rating ([3]; scale 0 = no injury, 10 = dead plant) of the same compound?
Its Injury rating is 3.5.

What about the “Plant height compared to the unsprayed resistant controls (in words)” value [4] of the same compound?
The value was “not affected”.

And the “% height reduction compared to no spray control” value [4, 10]?
The value was 0%.

And the “Plant height (cm)” value [4, 10]?
The value was 9.2 cm.

And the Injury rating ([4]; scale 0 = no injury, 10 = dead plant, SM 8 oz. a.i./A, IM 2 oz. a.i./A)?
Its Injury rating is 0.7.

And the “Tolerance of mutant ALS enzyme compared to susceptible variety” value ([5]; Arsenal at 10 to 100 μM, FIG. 1a)?
Its value is ~2.5 fold.

With `COc1nc(C)nc(NC(=O)NS(=O)(=O)c2ccccc2Cl)n1` [Glean, 2-chloro-N-[(4-methoxy-6-methyl-1,3,5-triazin-2-yl)aminocarbonyl]benzenesulfonamide] as the compound, how does the “Resistance of the clone with mutations” value [1] read?
The value was “strong resistance”.

What about the “Tolerance of CL161 rice AHAS compared to control” value ([2]; Glean at 1 μM, FIG. 1d) of the same compound?
The value was < 1 fold.

And the “Tolerance of mutant AHAS compared to susceptible control” value ([5]; Glean at 1 to 10 μM, FIG. 1c)?
The value was ~4.5 fold.

With `COC(=O)c1ccccc1S(=O)(=O)NC(=O)Nc1nc(C)cc(C)n1` [Oust, 2-[[[[(4,6-dimethyl-2-pyrimidinyl)amino]carbonyl]amino]sulfonyl]benzoic acid methyl ester] as the compound, how does the “Pre-emergence and/or post-emergence resistance to herbicide” value [1] read?
The value was “Resistance has been demonstrated”.

What about the “Resistance of the clone with mutations” value [1] of the same compound?
The value was “strong resistance”.

What about the injury rate [6] of the same compound?
The injury rate was 98%.

What about the “Tolerance of CL161 rice compared to susceptible variety CCDR (in words)” value ([2]; 100 μM of Oust, FIG. 1f) of the same compound?
The value was “significantly greater tolerance”.

What about the Percent injury rating (susceptible Coreopsis) of the same compound?
Its Percent injury rating is 98%.

And the Visual injury ([7]; all rates of Oust)?
The Visual injury was 100%.

And the “effect of second application” value ([8]; second application of Oust at 0.14 pounds ai/A)?
The value was “no noticeable effect”.

What about the injury rate ([8]; single application of Oust at 0.07 pounds ai/A) of the same compound?
Its injury rate is “less than 1%”.

And the “Tolerance of mutant ALS compared to susceptible control (in words)” value ([5]; Oust, FIG. 1e)?
Its value is “more tolerant than the susceptible control for Oust herbicide (sulfometuron methyl) (FIG. 1e), although the difference was not significant”.

Which “Pre-emergence and/or post-emergence resistance to herbicide” value [1] does the source give for `CCS(=O)(=O)c1nc2ccccn2c1S(=O)(=O)NC(=O)Nc1nc(OC)cc(OC)n1` [Outrider, 1-(2-ethylsulfonylimidazo[1,2a]pyridin-3-ylsulfonyl)-3-(4,6-dimethoxypyrimidin-2-yl) urea] here?
The value was “Resistance has been demonstrated”.

What about the Visual injury ([7]; 0.06 pound ai/A rate of Outrider) of the same compound?
Its Visual injury is 60%.

With `COc1cc(OC)nc(NC(=O)NS(=O)(=O)c2ncccc2C(F)(F)F)n1` [flazasulfuron] as the compound, how does the “Pre-emergence and/or post-emergence resistance to herbicide” value [1] read?
The value was “Resistance has been demonstrated”.

With `COC(=O)c1ccccc1S(=O)(=O)NC(=O)Nc1nc(C)nc(OC)n1` [metsulfuron methyl, methyl 2-[[[[(4-methoxy-6-methyl-1,3,5-triazin-2-yl)amino]carbonyl]amino]sulfonyl]benzoate] as the compound, how does the “Pre-emergence and/or post-emergence resistance to herbicide” value [1] read?
The value was “Resistance has been demonstrated”.

Which “Pre-emergence and/or post-emergence resistance to herbicide” value [1] does the source give for `COc1nc(C)nc(NC(=O)NS(=O)(=O)c2ccccc2OCCCl)n1` [triasulfuron, 3-(6-methoxy-4-methyl-1,3,5-triazin-2-yl)-1-[2-(2-chloroethoxy)-phenylsulfonyl]-urea] here?
The value was “Resistance has been demonstrated”.
